Data taken from patent publication US8293374B2, “Test system for evaluating the compatibility of biologically active substances with copolymers” (Abbott GmbH & Co. KG, priority 2002, dated 2012).

Legend:
[1] = Thermodynamic saturation solubility in test solvent, HPLC of clear supernatant after stirring 24 hours (method b); assay type: physicochemical
Description: Quantitative determination of the solubility is possible for example in the following way: • a) A concentration series is prepared by bringing various amounts of biologically active substance into contact with a constant amount of test solvent in parallel tests. After an equilibration time over a defined period at a given temperature, preferably with blending, e.g. stirring for 24 hours or ultrasound treatment for 30 min, the maximum concentration at which clear solutions are obtained is found. The solubility of the biologically active substance is between the concentration at which a clear solution is obtained but at the next concentration no clear solution is obtained. • b) An amount of the test solvent which is insufficient for completely dissolving is added to an amount of the biologically active substance, or further amounts of biologically active substance are added to the solution until the added amount no longer completely dissolves. After an equilibration time over a defined period at a given temperature, preferably with blending, e.g. stirring for 24 hours or ultrasound treatment for 30 min, a sample of the clear supernatant is taken. The mixture can for this purpose be previously centrifuged, e.g. using an ultracentrifuge at 8000 to 12 000 rpm. The concentration of the biologically active substance is determined in the sample of the clear supernatant, e.g. by high pressure liquid chromatography (HPLC). The value which is found corresponds to the solubility of the biologically active substance.
(§1) The copolymer was simulated by a mixture of 1,3-bis-(pyrrolidon-1-yl)butane and 1,4-diacetoxybutane in the ratio of 6:4 by weight.
In an alternative determination method, 150 mg of lopinavir were mixed with 350 mg of the test solvent and stirred at room temperature for 24 hours. The sample was then centrifuged at 12 000 rpm for one minute. The clear supernatant was investigated by HPLC.
Example 1b) was repeated but with the test solvent containing 5% by weight Cremophor RH 40.
Example 1b) was repeated with the abovementioned active ingredient premix. 21.3% by weight lopinavir was found in the clear supernatant by HPLC.
Example 3a) was repeated, using the concentrations indicated in the table below, and with the test solvent containing 10% by weight Cremophor RH 40. […] The HPLC method led to a result of 21.7% for lopinavir.

[2] = Maximum solubility in test solvent after ultrasound treatment, HPLC of supernatant (method c); assay type: physicochemical
Description: However, the active ingredient loading in solid solutions can be increased greatly by energy input. The maximum active ingredient loading achievable in a given matrix of a copolymer can be predicted with the test system of the invention by determining the solubility of the biologically active substance in accordance with one of the aforementioned methods a) or b), the equilibration being carried out by heating to a temperature of, for example, 140° C., in particular from 110 to 140° C., or by sonication.
as §1
The maximum solubility was determined by mixing 60 mg of lopinavir with 140 mg of the test solvent and treating with ultrasound at room temperature for 30 min. The solvent was then centrifuged at 10 000 rpm for 10 min. A sample of the clear supernatant was investigated by HPLC. […] The remaining amount of the sample was stored at room temperature for 4 weeks. Then a further sample of the supernatant was taken and investigated by HPLC. A concentration of 28.87% by weight was found.

- solubility ([1]; 150 mg lopinavir + 350 mg test solvent 6:4, stirred at room temperature 24 hours, HPLC of clear supernatant): 24.9 % by weight
- solubility ([1]; HPLC of supernatant, test solvent containing 5% by weight Cremophor RH 40): 22.8%
- lopinavir found in the clear supernatant ([1]; HPLC, lopinavir/ritonavir premix 4:1 by weight, test solvent 6:4): 21.3 % by weight
- thermodynamic saturation solubility, HPLC method ([1]; lopinavir/ritonavir premix 4:1, test solvent containing 10% by weight Cremophor RH 40): 21.7%
- maximum solubility ([2]; 60 mg lopinavir + 140 mg test solvent, ultrasound at room temperature 30 min, HPLC of supernatant): 39.72 % by weight
- concentration in supernatant after storage ([2]; after ultrasound treatment, sample stored at room temperature for 4 weeks, HPLC): 28.87 % by weight
Structure (SMILES): Cc1cccc(C)c1OCC(=O)N[C@@H](Cc1ccccc1)[C@@H](O)C[C@H](Cc1ccccc1)NC(=O)[C@H](C(C)C)N1CCCNC1=O [Lopinavir]
- influence of Cremophor RH 40 on thermodynamic saturation solubility ([1]; 5% by weight Cremophor RH 40 in test solvent versus none): reduces the thermodynamic saturation solubility
- influence of ritonavir on thermodynamic saturation solubility ([1]; presence of ritonavir (premix 4:1) versus lopinavir alone): reduces the thermodynamic saturation solubility
